Results: ChEMBL document CHEMBL3421536, “Identification of 4-(4-nitro-2-phenethoxyphenyl)pyridine as a promising new lead for discovering inhibitors of both human and rat 11β-Hydroxylase” (Eur J Med Chem, 2015)

Columns and labels:
Homo sapiens = species on record: Homo sapiens; assay: Selectivity index, ratio of IC50 for human CYP11B2 to IC50 for human CYP11B1
[1] = Retention time of the compound by HPLC analysis; type: physicochemical
[2] = biological target: T1, Cytochrome P450 11B1, mitochondrial (Homo sapiens, UniProt P15538); assay: Inhibition of human CYP11B1 expressed in hamster fibroblast using 100 nM [3H]-11-deoxycorticosterone as substrate after 25 mins by HPLC analysis
T1 sequence (P15538 whole entry): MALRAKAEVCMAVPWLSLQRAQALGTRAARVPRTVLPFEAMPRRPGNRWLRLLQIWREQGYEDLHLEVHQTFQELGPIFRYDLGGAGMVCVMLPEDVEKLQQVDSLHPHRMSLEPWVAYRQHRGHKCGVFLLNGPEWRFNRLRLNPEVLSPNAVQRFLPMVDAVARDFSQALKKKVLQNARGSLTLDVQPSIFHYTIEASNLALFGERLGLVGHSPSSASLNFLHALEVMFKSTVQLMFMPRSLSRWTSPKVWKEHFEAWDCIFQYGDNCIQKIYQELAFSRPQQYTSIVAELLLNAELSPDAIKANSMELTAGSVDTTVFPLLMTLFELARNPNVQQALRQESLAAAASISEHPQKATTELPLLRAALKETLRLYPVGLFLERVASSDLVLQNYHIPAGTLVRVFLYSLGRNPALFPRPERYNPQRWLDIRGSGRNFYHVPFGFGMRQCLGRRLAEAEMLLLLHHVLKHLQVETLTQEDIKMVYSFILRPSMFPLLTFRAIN

[3] = biological target: T2, Cytochrome P450 11B2, mitochondrial (Homo sapiens, UniProt P19099); assay: Inhibition of human CYP11B2 expressed in hamster fibroblast using 100 nM [3H]-11-deoxycorticosterone as substrate after 45 mins by HPLC analysis
T2 sequence (P19099 whole entry): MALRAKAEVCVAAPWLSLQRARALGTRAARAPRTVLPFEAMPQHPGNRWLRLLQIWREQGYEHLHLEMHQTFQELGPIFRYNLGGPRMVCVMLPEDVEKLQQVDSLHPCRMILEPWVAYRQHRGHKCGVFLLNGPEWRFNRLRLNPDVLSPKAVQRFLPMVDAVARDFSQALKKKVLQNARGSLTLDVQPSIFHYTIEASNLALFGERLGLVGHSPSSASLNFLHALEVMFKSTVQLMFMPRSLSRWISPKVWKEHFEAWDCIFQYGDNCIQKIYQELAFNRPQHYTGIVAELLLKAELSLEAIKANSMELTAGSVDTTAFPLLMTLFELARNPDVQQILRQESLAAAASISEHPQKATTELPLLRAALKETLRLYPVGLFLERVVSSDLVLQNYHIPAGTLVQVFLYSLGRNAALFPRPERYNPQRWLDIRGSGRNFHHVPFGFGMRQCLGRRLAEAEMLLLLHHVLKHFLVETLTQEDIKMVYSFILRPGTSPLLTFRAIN

[4] = biological target: T3, Cytochrome P450 11B1, mitochondrial (Rattus norvegicus, UniProt P15393); assay: Inhibition of rat CYP11B1 expressed in hamster fibroblast using 500 nM [3H]-11-deoxycorticosterone as substrate after 7 hrs by HPLC analysis
T3 sequence (P15393 whole entry): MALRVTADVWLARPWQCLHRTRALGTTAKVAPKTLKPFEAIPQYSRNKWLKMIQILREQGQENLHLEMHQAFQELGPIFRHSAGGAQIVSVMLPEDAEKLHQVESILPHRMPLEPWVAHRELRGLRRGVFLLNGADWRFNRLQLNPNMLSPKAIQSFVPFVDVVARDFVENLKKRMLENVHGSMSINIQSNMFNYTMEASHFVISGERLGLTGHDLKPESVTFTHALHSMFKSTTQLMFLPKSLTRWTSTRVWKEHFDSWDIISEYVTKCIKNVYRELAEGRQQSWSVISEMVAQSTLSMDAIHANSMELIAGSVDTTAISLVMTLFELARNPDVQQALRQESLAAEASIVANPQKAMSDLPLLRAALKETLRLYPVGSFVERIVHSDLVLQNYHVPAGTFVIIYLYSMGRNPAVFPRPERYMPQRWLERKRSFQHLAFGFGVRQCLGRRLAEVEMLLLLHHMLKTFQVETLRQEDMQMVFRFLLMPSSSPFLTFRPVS

Aromatase = biological target: T4, Aromatase (Homo sapiens, UniProt P11511); assay: Inhibition of human CYP19 expressed in hamster fibroblast using 500 nM [1beta-3H] androstenedione as substrate by HPLC analysis
T4 sequence (P11511 whole entry): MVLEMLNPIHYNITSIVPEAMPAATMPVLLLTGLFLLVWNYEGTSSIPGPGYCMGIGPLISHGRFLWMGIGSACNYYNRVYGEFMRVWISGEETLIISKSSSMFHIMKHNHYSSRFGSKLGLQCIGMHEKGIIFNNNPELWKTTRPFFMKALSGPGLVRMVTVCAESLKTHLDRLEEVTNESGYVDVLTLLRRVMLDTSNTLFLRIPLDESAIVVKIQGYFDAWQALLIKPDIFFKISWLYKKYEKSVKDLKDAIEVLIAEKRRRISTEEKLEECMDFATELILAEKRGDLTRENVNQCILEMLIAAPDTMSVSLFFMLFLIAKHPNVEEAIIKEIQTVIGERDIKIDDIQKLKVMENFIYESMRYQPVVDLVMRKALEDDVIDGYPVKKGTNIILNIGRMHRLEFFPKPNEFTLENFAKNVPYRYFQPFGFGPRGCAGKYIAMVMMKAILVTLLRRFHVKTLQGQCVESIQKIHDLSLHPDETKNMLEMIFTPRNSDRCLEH

SMILES	Selectivity Index (Homo sapiens)	Retention_time [1]	IC50 [2]	IC50 [3]	IC50 [4]	IC50 (Aromatase)
FC(F)(F)c1ccc(-c2cccnc2)c(OCCc2ccccc2)c1	1.2	10.3 min	812 nM	945 nM		
COc1ccc(-c2ccncc2)c(OCCc2ccccc2)c1	1.5	9.2 min	46 nM	70 nM		
CC(=O)Nc1ccc(-c2cccnc2)c(OCc2ccccc2)c1	2.3	7.25 min	279 nM	643 nM		
O=[N+]([O-])c1ccc(-c2ccncc2)c(OCCc2ccccc2)c1	3.5	9.21 min	2 nM	7 nM	163 nM	1890 nM
c1ccc(CCOc2cccnc2-c2cccnc2)cc1	0.9	7.73 min	1660 nM	1450 nM		
Cc1cncc(Cc2ccc(-c3ccccc3)nc2)c1	15.1					> 5000 nM
O=[N+]([O-])c1ccc(Cc2cccnc2)c(OCCc2ccccc2)c1	1.3	9.7 min	182 nM	246 nM	706 nM	128 nM
FC(F)(F)c1ccc(-c2ccncc2)c(OCCc2ccccc2)c1	0.9	10.13 min	26 nM	24 nM		2090 nM
N#Cc1ccc(-c2cccnc2)c(OCCc2ccccc2)c1	1.6	8.85 min	38 nM	63 nM	543 nM	165 nM
COc1cc2c(cc1-c1cccnc1)CCC(=O)N2	0.1		2490 nM			
CC(C)(C(=O)c1cccnc1)c1cccnc1 [METYRAPONE]					4610 nM	> 5000 nM
O=[N+]([O-])c1ccc(-c2cccnc2)c(OCCCc2ccccc2)c1	2.5	9.28 min	6 nM	15 nM	2080 nM	137 nM
CN(C)C(=O)c1ccc(-c2cccnc2)c(OCCc2ccccc2)c1	0.5	7.56 min	594 nM	299 nM		
CN(C)C(=O)c1ccc(-c2ccncc2)c(OCCc2ccccc2)c1	0.7	7.51 min	1150 nM	816 nM		
O=[N+]([O-])c1ccc(-c2cccnc2)c(OCCc2ccccc2)c1	4.1	9.13 min	13 nM	53 nM	1310 nM	75 nM
N#Cc1ccc(-c2ccncc2)c(OCCc2ccccc2)c1	1.9	8.71 min	12 nM	23 nM	441 nM	1550 nM
c1ccc(CCOc2cccnc2-c2ccncc2)cc1	0.9	7.91 min	2670 nM	2440 nM		
COc1ccc(-c2cccnc2)c(OCCc2ccccc2)c1	1.3	9.07 min	183 nM	230 nM		

Now from value to compound:

Selectivity Index (Homo sapiens)	Retention_time [1]	IC50 [2]	IC50 [3]	IC50 [4]	IC50 (Aromatase)	SMILES
1.6	9.57 min	51 nM	84 nM			Fc1ccc(-c2cccnc2)c(OCCc2ccccc2)c1
0.6	9.57 min	1200 nM	714 nM			O=[N+]([O-])c1ccc(-c2ccncc2)cc1OCCc1ccccc1
1.2	9.32 min	60 nM	74 nM			Fc1ccc(-c2ccncc2)c(OCCc2ccccc2)c1
2.7	9.55 min	6 nM	16 nM	2850 nM	157 nM	O=[N+]([O-])c1ccc(Cc2ccncc2)c(OCCc2ccccc2)c1
0.7	9.07 min	23 nM	17 nM	1490 nM	146 nM	O=[N+]([O-])c1ccc(-c2cccnc2)c(OCc2ccccc2)c1
1.7	9.02 min	50 nM	87 nM	648 nM	2420 nM	O=[N+]([O-])c1ccc(-c2ccncc2)c(OCc2ccccc2)c1
0.6	8.67 min	1210 nM	756 nM			O=C(Nc1ccc(-c2cccnc2)c(OCc2ccccc2)c1)c1ccc(F)cc1
0.5	5.63 min	540 nM	260 nM		447 nM	Nc1ccc(-c2cccnc2)c(OCc2ccccc2)c1
13.3				> 10000 nM	> 5000 nM	c1ccc(-c2ccc(Cn3ccnc3)cn2)cc1
0.9	9.8 min	508 nM	447 nM			O=[N+]([O-])c1ccc(-c2cccnc2)cc1OCCc1ccccc1
0.5				1500 nM		O=C1CCc2cc(-c3cccnc3)c(OCc3ccccc3)cc2N1
2.4	9.33 min	8 nM	18 nM	370 nM	4990 nM	O=[N+]([O-])c1ccc(-c2ccncc2)c(OCCCc2ccccc2)c1
